Earlier results on one compound are cited in patent US5733881A, “Opioid peptide antagonists” (Astra AB, priority 1994, dated 1998).

The test system of the data set is μ opioid receptors. To be noted: GPI assay.

Regarding `Oc1ccc2c3c1O[C@H]1c4[nH]c5ccccc5c4C[C@@]4(O)[C@@H](C2)N(CC2CC2)CC[C@]314` [naltrindole], the “μ antagonist Ke” value is listed as 29 nM.
